Assay results taken from ChEMBL document CHEMBL5325488, “Discovery of SMD-3040 as a Potent and Selective SMARCA2 PROTAC Degrader with Strong in vivo Antitumor Activity” (J Med Chem, 2023).
Activity calls are given as the source filed them. The rule behind the calls is not given here.

Assays:
[1] = biological target: T1, von Hippel-Lindau disease tumor suppressor/SWI/SNF-related matrix-associated actin-dependent regulator of chromatin subfamily A member 2 (Homo sapiens, UniProt P51531+P40337); assay: PROTAC activity at VHL/C-terminal HiBiT fused SMARCA2 in human HeLa cells assessed as induction of SMARCA2 degradation at 0.0001 to 1 uM incubated for 6 hrs by Nano-Glo HiBiT analysis relative to control; assay type: cell-based; conditions: dose 0.0001-1 µM
Target sequence in this assay (P40337 whole entry, looked up, the tested form may be a part): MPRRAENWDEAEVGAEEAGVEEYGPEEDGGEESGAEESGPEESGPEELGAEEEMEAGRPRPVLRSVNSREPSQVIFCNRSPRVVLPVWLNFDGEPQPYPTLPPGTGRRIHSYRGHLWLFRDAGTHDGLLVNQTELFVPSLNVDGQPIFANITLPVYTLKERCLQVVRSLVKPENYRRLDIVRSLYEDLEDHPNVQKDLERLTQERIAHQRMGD
Target sequence in this assay (P51531 whole entry, looked up, the tested form may be a part): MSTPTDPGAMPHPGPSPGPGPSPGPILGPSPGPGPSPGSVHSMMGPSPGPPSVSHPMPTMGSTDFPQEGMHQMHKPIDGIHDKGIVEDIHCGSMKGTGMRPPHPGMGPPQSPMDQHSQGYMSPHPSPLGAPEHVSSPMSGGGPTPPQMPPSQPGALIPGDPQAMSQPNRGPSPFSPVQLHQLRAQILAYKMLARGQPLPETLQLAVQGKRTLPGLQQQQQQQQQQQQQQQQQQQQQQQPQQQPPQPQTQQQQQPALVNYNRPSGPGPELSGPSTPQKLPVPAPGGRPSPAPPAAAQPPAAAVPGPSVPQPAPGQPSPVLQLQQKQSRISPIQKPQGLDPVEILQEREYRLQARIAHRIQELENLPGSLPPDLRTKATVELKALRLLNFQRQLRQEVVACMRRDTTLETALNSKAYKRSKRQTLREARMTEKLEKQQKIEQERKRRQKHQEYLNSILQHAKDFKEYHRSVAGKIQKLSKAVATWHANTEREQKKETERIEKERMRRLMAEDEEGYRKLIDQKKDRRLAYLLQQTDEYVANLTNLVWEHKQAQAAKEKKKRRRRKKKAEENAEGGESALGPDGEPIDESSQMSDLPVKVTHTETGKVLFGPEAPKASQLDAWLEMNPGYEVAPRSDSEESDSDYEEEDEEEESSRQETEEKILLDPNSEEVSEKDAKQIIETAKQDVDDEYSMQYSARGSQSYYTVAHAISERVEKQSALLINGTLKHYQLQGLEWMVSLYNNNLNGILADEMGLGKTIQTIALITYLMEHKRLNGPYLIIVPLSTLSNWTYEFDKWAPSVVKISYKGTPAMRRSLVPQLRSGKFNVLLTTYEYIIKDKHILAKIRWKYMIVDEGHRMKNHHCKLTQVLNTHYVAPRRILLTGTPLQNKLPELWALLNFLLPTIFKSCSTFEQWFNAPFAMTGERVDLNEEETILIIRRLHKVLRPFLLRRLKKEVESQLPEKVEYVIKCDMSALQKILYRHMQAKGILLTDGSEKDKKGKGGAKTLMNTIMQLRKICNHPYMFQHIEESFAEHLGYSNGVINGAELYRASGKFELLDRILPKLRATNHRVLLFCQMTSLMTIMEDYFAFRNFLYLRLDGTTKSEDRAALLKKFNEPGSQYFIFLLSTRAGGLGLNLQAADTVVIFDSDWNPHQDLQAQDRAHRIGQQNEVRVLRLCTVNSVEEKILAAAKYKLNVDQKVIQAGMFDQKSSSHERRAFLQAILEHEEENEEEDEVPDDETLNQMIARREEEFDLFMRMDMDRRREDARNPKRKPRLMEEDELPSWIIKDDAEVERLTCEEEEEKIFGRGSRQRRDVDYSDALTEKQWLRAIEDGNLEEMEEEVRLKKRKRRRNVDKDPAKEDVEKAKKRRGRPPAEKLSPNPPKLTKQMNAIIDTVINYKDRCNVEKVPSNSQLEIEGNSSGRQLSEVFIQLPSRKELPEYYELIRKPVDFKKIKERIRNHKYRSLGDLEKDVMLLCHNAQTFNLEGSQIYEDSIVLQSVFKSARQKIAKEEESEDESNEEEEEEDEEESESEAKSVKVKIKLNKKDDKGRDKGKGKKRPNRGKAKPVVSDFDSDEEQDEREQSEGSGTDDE

[2] = biological target: T2, von Hippel-Lindau disease tumor suppressor/SWI/SNF-related matrix-associated actin-dependent regulator of chromatin subfamily A member 4 (Homo sapiens, UniProt P51532+P40337); assay: In vivo PROTAC activity at VHL/SMARCA4 in SCID mouse xenografted with human MV4-11 cells assessed as remaining activity in tumor at 50 mg/kg, iv administered as single dose measured after 2 hrs by Western blotting analysis (reference value: 100 +/- 15 % ); assay type: ADME, organism-based
[3] = biological target: T1, von Hippel-Lindau disease tumor suppressor/SWI/SNF-related matrix-associated actin-dependent regulator of chromatin subfamily A member 2; assay: PROTAC activity at VHL/C-terminal HiBiT fused SMARCA2 in human HeLa cells assessed as induction of SMARCA2 degradation incubated for 6 hrs by Nano-Glo HiBiT analysis; assay type: cell-based
Target sequence in this assay (P51531 whole entry, the tested form may be a part): as the sequence (P51531 whole entry, looked up, the tested form may be a part) above
Target sequence in this assay (P40337 whole entry, the tested form may be a part): as the sequence (P40337 whole entry, looked up, the tested form may be a part) above

[4] = Antiproliferative activity against SMARCA4-deficient human NCI-H1568 cells assessed as cell growth inhibition measured after 7 days by WST-8 assay; assay type: functional; conditions: NCI-H1568, 168 h, time 7 day
[5] = test system: SK-MEL-5; assay: Antiproliferative activity against SMARCA4-deficient human SK-MEL-5 cells assessed as cell growth inhibition by measuring maximal efficacy measured after 7 days by WST-8 assay relative to control; assay type: functional; conditions: time 7 day
[6] = test system: SK-MEL-5; assay: Antiproliferative activity against SMARCA4-deficient human SK-MEL-5 cells assessed as cell growth inhibition measured after 7 days by WST-8 assay; assay type: functional; conditions: SK-MEL-5, 168 h, time 7 day
[7] = biological target: T2, von Hippel-Lindau disease tumor suppressor/SWI/SNF-related matrix-associated actin-dependent regulator of chromatin subfamily A member 4; assay: In vivo PROTAC activity at VHL/SMARCA4 in SCID mouse xenografted with human MV4-11 cells assessed as reduction of SMARCA4 level in tumor at 50 mg/kg, iv administered as single dose measured after 72 hrs by Western blotting analysis; assay type: ADME, organism-based; parameters: scale not given: the % may be the effect or the level left
[8] = biological target: T1, von Hippel-Lindau disease tumor suppressor/SWI/SNF-related matrix-associated actin-dependent regulator of chromatin subfamily A member 2; assay: PROTAC activity at VHL/wild-type SMARCA2 in human SK-MEL-28 cells assessed as induction of SMARCA2 degradation at 0.001 to 1000 nM incubated for 24 hrs by Western blotting analysis relative to control; assay type: cell-based; conditions: dose 0.001-1000 nM
Target sequence in this assay (P40337 whole entry, looked up, the tested form may be a part): as above
Target sequence in this assay (P51531 whole entry, looked up, the tested form may be a part): as the sequence (P51531 whole entry, looked up, the tested form may be a part) above

[9] = biological target: T1, von Hippel-Lindau disease tumor suppressor/SWI/SNF-related matrix-associated actin-dependent regulator of chromatin subfamily A member 2; assay: In vivo PROTAC activity at VHL/SMARCA2 in SCID mouse xenografted with human MV4-11 cells assessed as remaining activity in tumor at 50 mg/kg, iv administered as single dose measured after 6 hrs by Western blotting analysis (reference value: 100 +/- 15 % ); assay type: ADME, organism-based
Target sequence in this assay (P51531 whole entry, the tested form may be a part): as the sequence (P51531 whole entry, looked up, the tested form may be a part) above
Target sequence in this assay (P40337 whole entry, the tested form may be a part): as the sequence (P40337 whole entry, looked up, the tested form may be a part) above

[10] = test system: NCI-H838; assay: Antitumor activity against SMARCA4-deficient human NCI-H838 cells xenografted in SCID mouse assessed as tumor growth inhibition at 50 mg/kg, iv administered twice a week measured after 3 weeks relative to control; assay type: functional; conditions: NCI-H838, 504 h, read-out: TGI
[11] = biological target: T1, von Hippel-Lindau disease tumor suppressor/SWI/SNF-related matrix-associated actin-dependent regulator of chromatin subfamily A member 2; assay: In vivo PROTAC activity at VHL/SMARCA2 in SCID mouse xenografted with human MV4-11 cells assessed as reduction of SMARCA2 level in tumor at 50 mg/kg, iv administered as single dose measured after 2 hrs by Western blotting analysis; assay type: ADME, organism-based; parameters: scale not given: the % may be the effect or the level left
Target sequence in this assay (P51531 whole entry, the tested form may be a part): as the sequence (P51531 whole entry, looked up, the tested form may be a part) above
Target sequence in this assay (P40337 whole entry, the tested form may be a part): as the sequence (P40337 whole entry, looked up, the tested form may be a part) above

[12] = biological target: T1, von Hippel-Lindau disease tumor suppressor/SWI/SNF-related matrix-associated actin-dependent regulator of chromatin subfamily A member 2; assay: In vivo PROTAC activity at VHL/SMARCA2 in SCID mouse xenografted with human MV4-11 cells assessed as remaining activity in tumor at 50 mg/kg, iv administered as single dose measured after 72 hrs by Western blotting analysis (reference value: 100 +/- 15 % ); assay type: ADME, organism-based
Target sequence in this assay (P51531 whole entry, the tested form may be a part): as the sequence (P51531 whole entry, looked up, the tested form may be a part) above
Target sequence in this assay (P40337 whole entry, the tested form may be a part): as the sequence (P40337 whole entry, looked up, the tested form may be a part) above

[13] = biological target: T2, von Hippel-Lindau disease tumor suppressor/SWI/SNF-related matrix-associated actin-dependent regulator of chromatin subfamily A member 4; assay: In vivo PROTAC activity at VHL/SMARCA4 in SCID mouse xenografted with human MV4-11 cells assessed as reduction of SMARCA4 level in tumor at 50 mg/kg, iv administered as single dose measured after 96 hrs by Western blotting analysis; assay type: ADME, organism-based; parameters: scale not given: the % may be the effect or the level left
[14] = test system: NCI-H1299; assay: Antiproliferative activity against SMARCA4-deficient human NCI-H1299 cells assessed as cell growth inhibition by measuring maximal efficacy measured after 7 days by WST-8 assay relative to control; assay type: functional; conditions: time 7 day
[15] = biological target: T2, von Hippel-Lindau disease tumor suppressor/SWI/SNF-related matrix-associated actin-dependent regulator of chromatin subfamily A member 4; assay: PROTAC activity at VHL/C-terminal HiBiT fused SMARCA4 in human HeLa cells assessed as induction of SMARCA4 degradation incubated for 48 hrs by Nano-Glo HiBiT analysis; assay type: cell-based
[16] = biological target: T1, von Hippel-Lindau disease tumor suppressor/SWI/SNF-related matrix-associated actin-dependent regulator of chromatin subfamily A member 2; assay: PROTAC activity at VHL/C-terminal HiBiT fused SMARCA2 in human HeLa cells assessed as induction of SMARCA2 degradation by measuring maximal efficacy incubated for 24 hrs by Nano-Glo HiBiT analysis relative to control; assay type: cell-based
Target sequence in this assay (P40337 whole entry, looked up, the tested form may be a part): as above
Target sequence in this assay (P51531 whole entry, looked up, the tested form may be a part): as the sequence (P51531 whole entry, looked up, the tested form may be a part) above

[17] = biological target: T1, von Hippel-Lindau disease tumor suppressor/SWI/SNF-related matrix-associated actin-dependent regulator of chromatin subfamily A member 2; assay: In vivo PROTAC activity at VHL/SMARCA2 in SCID mouse xenografted with human NCI-H838 cells assessed as reduction of SMARCA2 level in tumor at 50 mg/kg, iv administered as single dose measured after 48 hrs by Western blotting analysis; assay type: functional, organism-based; parameters: scale not given: the % may be the effect or the level left
Target sequence in this assay (P40337 whole entry, looked up, the tested form may be a part): as the sequence (P40337 whole entry, looked up, the tested form may be a part) above
Target sequence in this assay (P51531 whole entry, looked up, the tested form may be a part): as the sequence (P51531 whole entry, looked up, the tested form may be a part) above

[18] = biological target: T1, von Hippel-Lindau disease tumor suppressor/SWI/SNF-related matrix-associated actin-dependent regulator of chromatin subfamily A member 2; assay: In vivo PROTAC activity at VHL/SMARCA2 in SCID mouse xenografted with human MV4-11 cells assessed as remaining activity in tumor at 50 mg/kg, iv administered as single dose measured after 96 hrs by Western blotting analysis (reference value: 100 +/- 15 % ); assay type: ADME, organism-based
Target sequence in this assay (P51531 whole entry, the tested form may be a part): as the sequence (P51531 whole entry, looked up, the tested form may be a part) above
Target sequence in this assay (P40337 whole entry, the tested form may be a part): as the sequence (P40337 whole entry, looked up, the tested form may be a part) above

[19] = biological target: T1, von Hippel-Lindau disease tumor suppressor/SWI/SNF-related matrix-associated actin-dependent regulator of chromatin subfamily A member 2; assay: PROTAC activity at VHL/C-terminal HiBiT fused SMARCA2 in human HeLa cells assessed as induction of SMARCA2 degradation incubated for 24 hrs by Nano-Glo HiBiT analysis; assay type: cell-based
Target sequence in this assay (P51531 whole entry, the tested form may be a part): as the sequence (P51531 whole entry, looked up, the tested form may be a part) above
Target sequence in this assay (P40337 whole entry, the tested form may be a part): as the sequence (P40337 whole entry, looked up, the tested form may be a part) above

[20] = Drug concentration in SCID mouse tumor xenografted with human MV4-11 cells at 50 mg/kg, iv measured after 24 hrs by LC-MS/MS method; assay type: ADME, organism-based, Neoplasm; conditions: read-out: Ct
[21] = Antiproliferative activity against SMARCA4-deficient human NCI-H1568 cells assessed as cell growth inhibition by measuring maximal efficacy measured after 7 days by WST-8 assay relative to control; assay type: functional; conditions: time 7 day
[22] = test system: NCI-H1944; assay: Antiproliferative activity against SMARCA4-deficient human NCI-H1944 cells assessed as cell growth inhibition measured after 7 days by WST-8 assay; assay type: functional; conditions: NCI-H1944, 168 h, time 7 day
[23] = biological target: T1, von Hippel-Lindau disease tumor suppressor/SWI/SNF-related matrix-associated actin-dependent regulator of chromatin subfamily A member 2; assay: In vivo PROTAC activity at VHL/SMARCA2 in SCID mouse xenografted with human MV4-11 cells assessed as reduction of SMARCA2 level in tumor at 50 mg/kg, iv administered as single dose measured after 24 hrs by Western blotting analysis; assay type: ADME, organism-based; parameters: scale not given: the % may be the effect or the level left
[24] = biological target: T1, von Hippel-Lindau disease tumor suppressor/SWI/SNF-related matrix-associated actin-dependent regulator of chromatin subfamily A member 2; assay: PROTAC activity at VHL/C-terminal HiBiT fused SMARCA2 in human HeLa cells assessed as induction of SMARCA2 degradation pre-treated with (2S,4R)-1-((S)-2-acetamido-3,3-dimethylbutanoyl)-4-hydroxy-N-((S)-1-(4-(4-methylthiazol-5-yl)phenyl)ethyl)pyrrolidine-2-carboxamide for 2 hrs followed by compound treatment for 24 hrs by Nano-Glo HiBiT analysis; assay type: cell-based
Target sequence in this assay (P40337 whole entry, looked up, the tested form may be a part): as above
Target sequence in this assay (P51531 whole entry, looked up, the tested form may be a part): as the sequence (P51531 whole entry, looked up, the tested form may be a part) above

[25] = test system: NCI-H1693; assay: Antiproliferative activity against SMARCA4-deficient human NCI-H1693 cells assessed as cell growth inhibition measured after 7 days by WST-8 assay; assay type: functional; conditions: NCI-H1693, 168 h, time 7 day

Compound: Cc1ncsc1-c1ccc([C@H](C)NC(=O)[C@@H]2C[C@@H](O)CN2C(=O)[C@@H](NC(=O)[C@H]2CC[C@H](CN3CC4(CCC(n5cc(-c6cc(-c7ccccc7O)nnc6N)cn5)CC4)C3)CC2)C(C)(C)C)cc1
- Emax [1]: 80%
- Activity [2]: 93%
- DC50 [3]: 44 nM
- GI50 [4]: 8.8 nM
- Imax [5]: 95%
- GI50 [6]: 15 nM
- Activity [7]: 9%
- Emax [8]: 98%
- Activity [9]: 30%
- inhibition in vivo at 50 mg/kg [10]: 81%
- Activity [11]: 78%
- Activity [12]: 44%
- Activity [13]: 16%
- Imax [14]: 41%
- DC50 [15]: 174 nM
- Emax [16]: 91%
- Activity [17]: 75%
- Activity [18]: 26%
- DC50 [19]: 10 nM
- concentration at 24 h [20]: 2960 ng/g
- Imax [21]: 79%
- GI50 [22]: 30 nM
- Activity [23]: 86%
- Activity [24]: inactive
- GI50 [25]: 15 nM
